From PMC6299892 (Journal of Genetic Engineering & Biotechnology, 2016)

System: A. pullulans NAC8 yellow laccase
Assay: absorbance at […] nm, double reciprocal plot
Format: biochemical, Aureobasidium pullulans
Settings: guaiacol 0.1-3.0 mM; standard assay: acetate buffer pH 5.0, 25 °C

- Km: 1050 ± 120 µM
Compound: COc1ccccc1O [guaiacol, 2-methoxyphenol]
